Data set [1] concerns patients with and without the E508K variant of HNF1A. In words: Study of acute glipizide response in humans with the HNF1A E508K variant. Format: in vivo, human. The following applies: carriers vs non-carriers of HNF1A E508K, preliminary results, statistical analysis ongoing. As for the experimental part:
Acute and medium-term response to glipizide in patients with and without the E508K variant of HNF1A will be measured. The study will consist of two phases. Patients will be invited to participate in both, but the research subject will have the freedom to choose only one of the stages of the study.
Open Study of a Single Dose of Glipizide (5 mg) in Patients With and Without the E508K Variant of HNF1A
Main Objective: To compare the change in glucose between carriers and noncarriers after a single oral administration of 5 mg of glipizide. […]
Eligible patients will discontinue antidiabetic therapy and initiate a washout period of 7 days, during which they will be monitored for hyperglycemia requiring re-initiation of antidiabetic therapy. […]
Patients will be admitted to the clinical research center after fasting for 8 hours. […] The concentrations of glucose, insulin and other hormones (GLP1) and metabolites will be measured at 15, 30, 60, 90, 120, 180, and 240 minutes after administration of 5 mg of glipizide. In the event of developing symptoms of hypoglycemia, blood glucose will be measured immediately. […]

For data set [2] the following is noted: cited from earlier work.
The conditions of data set [3]: cited from earlier work. This is another data set of the same source.

The values below come from patent US11578368B2, “Methods, tools and systems for the assessment, prevention, management and treatment selection for type 2 diabetes” (Patia Biopharma, S.A. De C.V., priority 2015, dated 2023).

Molecules are shown by their SMILES. Where only a bound is given, the exact number is not on record here.

On to `Cc1cnc(C(=O)NCCc2ccc(S(=O)(=O)NC(=O)NC3CCCCC3)cc2)cn1` [Glipizide], for which the “hypoglycaemic response to glipizide in carriers of the E508K HNF1A variant” value is recorded as “greater response” in data set [1] and “great hypoglycaemic response” in data set [1] (listed as glipizide). The “risk of inducing severe hypoglycemia” value in data set [2] (described as low) is on record as 0.19-2.5 episodes per 1000 patient-years. Moreover, the life in data set [3] (described as short) is 2 to 8 h. Further, the “time until it starts acting” value in data set [3] (oral) was ≤ 30 min.
`CN(C)C(=N)N=C(N)N` [Metformin]: in data set [2] (at the proposed dose), the “rate of gastrointestinal adverse events” value is given as “low rate”.
